According to US20100196475A1, “CONTROLLED RELEASE TABLET FORMULATION CONTAINING MAGNESIUM ALUMINOMETASILICATE” (priority 2007, published 2010):
≈ marks a conversion by molar mass, not a printed value. Where a name gives a salt, the structure may show the parent alone.

Test: physchem
Assay type: physicochemical
Settings: for solubility: water
Protocol: Four different active agents with different solubilities were selected for the preparation of multi-layer tablets, as follows:
9410 (Prednisone)—solubility of 0.1 mg/ml in water.

For `CC(C)(Cc1c[nH]c2ccccc12)NCC(O)COc1ccccc1C#N` (stereo not drawn) [compound 8110, Bucindolol], the “solubility described in words” value was “freely soluble” and the solubility was 257 mg/mL (≈ 707 mM).

With `C[C@]12C=CC(=O)C=C1CC[C@@H]1[C@@H]2C(=O)C[C@@]2(C)[C@H]1CC[C@]2(O)C(=O)CO` [compound 9410, Prednisone] the “solubility described in words” value was “soluble” and the solubility was 0.1 mg/mL (≈ 0.279 mM).

In the case of `COc1ccc([C@@H]2Sc3ccccc3N(CCN(C)C)C(=O)[C@@H]2OC(C)=O)cc1` [compound 8403, Diltiazem HCl], the “solubility described in words” value is reported as “Very soluble” and the solubility is reported as 1200 mg/mL.
